Where “and” joins values, the source holds several entries; their conditions need not be identical. Identical values can stand only once.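 Each compound was tested at five concentrations against cells in 96-well plates for 48 hours. At the GI50, growth is halved. TGI: concentration producing complete growth inhibition.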
Tests used:
Assay in all cases: NCI tumour cell line growth inhibition, 48 h
OVCAR-3 ovarian = test system: OVCAR-3 ovarian
SK-MEL-28 melanoma = test system: SK-MEL-28 melanoma
SW-620 colon = test system: SW-620 colon
MOLT-4 leukemia = test system: MOLT-4 leukemia
RPMI-8226 leukemia = test system: RPMI-8226 leukemia
UO-31 renal = test system: UO-31 renal
OVCAR-8 ovarian = test system: OVCAR-8 ovarian
MDA-MB-231 breast = test system: MDA-MB-231 breast
SNB-75 CNS = test system: SNB-75 CNS
SK-MEL-2 melanoma = test system: SK-MEL-2 melanoma

Compound | GI50 (OVCAR-3 ovarian) | TGI (OVCAR-3 ovarian) | GI50 (SK-MEL-28 melanoma) | TGI (SK-MEL-28 melanoma) | GI50 (SW-620 colon) | TGI (SW-620 colon) | GI50 (MOLT-4 leukemia) | TGI (MOLT-4 leukemia) | GI50 (RPMI-8226 leukemia) | GI50 (UO-31 renal) | TGI (UO-31 renal) | GI50 (OVCAR-8 ovarian) | TGI (OVCAR-8 ovarian) | GI50 (MDA-MB-231 breast) | TGI (MDA-MB-231 breast) | GI50 (SNB-75 CNS) | TGI (SNB-75 CNS) | GI50 (SK-MEL-2 melanoma) | TGI (SK-MEL-2 melanoma) | TGI (RPMI-8226 leukemia)
CCC1=C[C@@H]2CN(C1)Cc1c([nH]c3ccccc13)[C@@](C(=O)OC)(c1cc3c(cc1OC)N(C)[C@H]1[C@@](O)(C(=O)OC)[C@H](OC(C)=O)[C@]4(CC)C=CCN5CC[C@]31[C@@H]54)C2 | < 0.01 µM | < 0.01 µM | < 0.01 µM | 18.2 µM | < 0.01 µM | 17.9 µM | < 0.01 µM | 3.5 µM | < 0.01 µM | 1.02 µM | 18.6 µM | < 0.0213 µM | 25.6 µM | < 0.018 µM | 8.04 µM | < 0.01 µM | 7.92 µM | 0.727 µM | 9.23 µM | –
NC(=O)c1cc(I)ccc1NC(=O)/C=C/c1ccccc1Cl | 0.271 µM | 0.638 µM | 0.374 µM | 21.8 µM | 0.462 µM | > 39.6 µM | 0.765 µM | – | 0.504 µM | 1.79 µM | 31.8 µM | 3 µM | > 38.8 µM | 1.63 µM | 31.9 µM | 0.995 µM | 25.3 µM | 0.628 µM | 30.1 µM | 4.66 µM
Cc1cc(I)cc(CNCCN2CCOCC2)c1O | > 100 µM | > 100 µM | > 100 µM | > 100 µM | > 100 µM | > 100 µM | > 100 µM | > 100 µM | > 100 µM | 67.8 µM | > 100 µM | > 100 µM | > 100 µM | > 100 µM | > 100 µM | 75.6 µM | > 100 µM | > 100 µM | > 100 µM | > 100 µM
O=C(NCCCl)NCCN1c2nc3ccccc3cc2Sc2cc3ccccc3nc21 | 1.45 µM | 16.1 µM | 2.8 µM | 8.53 µM | 1.16 µM | 2.95 µM | 0.861 µM | – | 0.245 µM | 2.64 µM | > 52.1 µM | 3.03 µM | 20.8 µM | 2.71 µM | 17.8 µM | 0.558 µM | 5.47 µM | 2.21 µM | 8.53 µM | 1.64 µM
CN(C)c1ccc(/C=C(\C#N)c2ccccc2)cc1 | 0.272 µM and 0.398 µM and 0.365 µM | 1.22 µM and 3.23 µM and 4.25 µM | – | > 100 µM | 0.28 µM and 0.447 µM and 0.444 µM | > 100 µM | 0.372 µM and 0.439 µM and 0.545 µM | > 100 µM | 0.288 µM and 0.648 µM | 0.587 µM and 0.698 µM and 1.74 µM | > 100 µM | 0.61 µM and 2.52 µM and 2.65 µM | > 100 µM | 1.66 µM and 1.97 µM | 78.4 µM and 76.7 µM | 0.361 µM and 0.626 µM and 0.299 µM | > 100 µM | 0.453 µM and 0.465 µM | > 100 µM | –
COc1ccc(C2CC(c3ccccc3)=NN2C(=O)c2cc(OC)c(OC)c(OC)c2)cc1O (stereo not given) | 0.326 µM | 3.99 µM | 0.597 µM | > 47.6 µM | 0.415 µM | > 55.7 µM | 0.469 µM | 16.2 µM | 0.259 µM | 0.751 µM | > 100 µM | 0.659 µM | > 76.5 µM | 0.902 µM | 18.1 µM | 0.422 µM | > 100 µM | 4.74 µM | > 42 µM | 5.47 µM
Nc1c(C(=O)c2ccc(C#CCN3CCOCC3)cc2)cnn1-c1ccc(F)cc1 | > 25 µM | > 25 µM | > 25 µM | > 25 µM | > 25 µM | > 25 µM | > 25 µM | > 25 µM | > 25 µM | > 25 µM | > 25 µM | > 25 µM | > 25 µM | > 25 µM | > 25 µM | > 25 µM | > 25 µM | > 25 µM | > 25 µM | > 25 µM
Cc1ccc(/C=C(/C#N)n2nnc3ncccc32)cc1 | 0.801 µM | 3.74 µM | 2.17 µM | 31.3 µM | 1.2 µM | 12 µM | 3.41 µM | 19 µM | 3 µM | 2.01 µM | 12.4 µM | 3.16 µM | > 100 µM | 2.41 µM | 8.44 µM | 2.98 µM | > 100 µM | 2.47 µM | 8.66 µM | 9.73 µM
CCSc1nc(NC(C)c2ccccc2)c2cnn(CO)c2n1 (stereo not given) | 64.7 µM | > 100 µM | 87.2 µM | > 100 µM | 67.9 µM | > 100 µM | > 100 µM | > 100 µM | > 100 µM | 66.5 µM | > 100 µM | 99.3 µM | > 100 µM | 61.8 µM | > 100 µM | > 100 µM | > 100 µM | > 100 µM | > 100 µM | > 100 µM
CN1CCN(Cc2ccc(NC(=O)c3cncc(C#Cc4c(N)ncc5c(F)cccc45)c3)cc2C(F)(F)F)CC1 | 0.828 µM | 1.53 µM | 0.831 µM | 1.56 µM | 0.454 µM | 1.16 µM | 0.57 µM | 1.5 µM | 0.991 µM | 0.712 µM | 1.42 µM | 0.988 µM | 2.24 µM | 0.522 µM | 1.17 µM | 0.827 µM | 1.55 µM | 0.809 µM | 1.93 µM | 2.37 µM

Reference: PubChem BioAssay (NCI)
